These results are taken from patent US4048334A, “Active derivatives of methylamino in therapeutic compositions and methods of use” (priority 1974, dated 1977).

Data set [1] concerns reserpine-induced and neuroleptic-induced catatonia. Nature of the data set: Toxico-pharmacological index (LD50 / effective dose in catatonia). The conditions noted are these: ED20-30: 20 to 30% inhibition of the catatonia.
In data set [2] the test system is neuroleptic-induced catatonia. As to the kind of experiment: Inhibition of neuroleptic-induced catatonia (prochlorperazine). The data set is classed as in vivo, rat (male, OFA strain). The conditions noted are these: 30 min before prochlorperazine. Here is the method: 2. Inhibition of neuroleptic-induced catatonia
The blocking of dopaminergic receptors by neuroleptics in the extra-pyramidal system induces catatonia in the rat. Catatonia is differentiated from sedative properties by means of the test used hereabove for reserpine-induced catatonia. The same system of scoring was also employed in the present case.
An oral dose of the compound to be studied in aqueous solution was administered to batches of 10 male rats of the OFA strain weighing about 150 to 200 g. […] Three hours after the injection of this latter compound, catatonia was measured. An identical trial was also carried out with control animals which received prochlorperazine but none of the compounds under study.
The scoring system, used was that given hereabove in Table I.

Data set [3] relates to reserpine-induced catatonia. Nature of the data set: Inhibition of reserpine-induced catatonia. The data set is classed as in vivo, rat (male, OFA strain). Particulars: 30 min before reserpine. Here is the method: 1. Inhibition of reserpine-induced catatonia
After sufficient doses of reserpine have been administered to the rat, a series of symptoms occur, more particularly ptosis, catatonia and a drop in central temperature. These symptoms are caused by the depletion of the intragranular reserve pool of boigenetic amines at the synaptic terminals.
An oral dose of the compound to be studied in aqueous solution was administered to batches of 10 male rats of the OFA strain weighing about 150 to 200 g. Thirty minutes later a dose of 5 mg/kg of reserpine was given by intraperitoneal route. Three hours after the injection of reserpine, the animals were suspended by the four paws to a horizontally stretched wire fixed at 15 cm from the ground. The catatonic animals were those which maintained the position so given for at least 30 seconds. […] The maximum score was therefore 10 per batch. An identical trial was undertaken with control animals which received reserpine but none of the compounds being studied.

Data set [4] is described as follows: in vivo. Particulars: mouse, mice, oral, aqueous solution, 10 days observation.
The conditions of data set [5]: SPERBER et al., J. Amer. Chem. Soc., 71, 3352 (1949); cited from earlier work.
Data set [6] relates to isolated duodenum of the rat. As to the kind of experiment: MAGNUS test: inhibition of acetylcholine spasm (cholinolytic / spasmolytic activity in vitro). The source says: This test consists in determining the dose of acetylcholine which, when added to the bath, provokes spasm of the isolated duodenum of the rat. The next step consists in determining the dose of the compound under study which, when added to the bath 30 seconds before the acetylcholine, reduces the spasm.

In general, LD50 refers to the dose at which mortality reaches 50%. As to `CCCC(C)(N)CC(C)CC` (centres unmarked) [Compound 6, 1,3-Dimethyl-1-n-propyl-n-pentylamine], the “Index LD50/ED20-30” value in data set [1] is on record as > 25. Also, the “Inhibition of the neuroleptic-induced catatonia” value in data set [2] (20 mg/kg oral) is given as 1 (20 to 30% inhibition of catatonia in comparison with the controls (namely a score of 7 to 8 per studied batch)). Further, the “Inhibition of reserpine-induced catatonia” value in data set [3] (20 mg/kg oral) was 1 (20 to 30% inhibition of catatonia in comparison with the controls (namely a score of 7 to 8 per studied batch)). In addition, the 50% lethal dose (LD50) at 240 h in data set [4] was > 500 mg/kg.
As for `CCCCC(N)(CCCC)CCCC` [Compound 12, 1,1-Di-n-butyl-n-pentylamine], the “Index LD50/ED20-30” value in data set [1] came out at 25. The “Inhibition of the neuroleptic-induced catatonia” value in data set [2] (20 mg/kg oral) is recorded as 1 (20 to 30% inhibition of catatonia in comparison with the controls (namely a score of 7 to 8 per studied batch)). Further, the “spasmolytic activity and toxicity versus corresponding trialkylethylamines” value in data set [5] was “less spasmolytic and more toxic than the corresponding trialkylethylamines”. Besides, in data set [3] (20 mg/kg oral), the “Inhibition of reserpine-induced catatonia” value was 1 (20 to 30% inhibition of catatonia in comparison with the controls (namely a score of 7 to 8 per studied batch)). The median lethal dose (LD50) at 240 h in data set [4] came out at 500 mg/kg.
`CN1[C@@H]2CC[C@H]1C[C@@H](OC(=O)C(CO)c1ccccc1)C2` (some centres unmarked) [Atropine, reference compound]: the results for the “% of inhibition of the spasm” value in data set [6] (0.1 × 10^-6 g/ml of bath) and in data set [6] (0.2 × 10^-6 g/ml of bath) were 45% and 100%, respectively.
Regarding `CCCCCC(C)(N)CCC` (centres unmarked) [Compound 9, 1-Methyl-1-n-propyl-n-hexylamine], in data set [1], the “Index LD50/ED20-30” value amounted to 87. Moreover, the “Inhibition of the neuroleptic-induced catatonia” value in data set [2] (20 mg/kg oral) was 1 (20 to 30% inhibition of catatonia in comparison with the controls (namely a score of 7 to 8 per studied batch)). For the same compound, in data set [3] (20 mg/kg oral), the “Inhibition of reserpine-induced catatonia” value is reported as 1 (20 to 30% inhibition of catatonia in comparison with the controls (namely a score of 7 to 8 per studied batch)). Further, the median lethal dose (LD50) at 240 h in data set [4] worked out at 1750 mg/kg.
On to `CCC#CC(N)(CC)CC` [Compound 22, 1,1-Diethyl-2-pentyn-1-ylamine], for which the “Inhibition of the neuroleptic-induced catatonia” value in data set [2] (30 mg/kg oral) is listed as 1 (20 to 30% inhibition of catatonia in comparison with the controls (namely a score of 7 to 8 per studied batch)). For the same compound, in data set [3] (60 mg/kg oral), the “Inhibition of reserpine-induced catatonia” value is listed as 1 (20 to 30% inhibition of catatonia in comparison with the controls (namely a score of 7 to 8 per studied batch)).
Turning to `CCCCCCCC(C)(C)N` [Compound 10, 1,1-Dimethyl-n-octylamine], in data set [2] (50 mg/kg oral), the “Inhibition of the neuroleptic-induced catatonia” value is listed as 1 (20 to 30% inhibition of catatonia in comparison with the controls (namely a score of 7 to 8 per studied batch)). In addition, in data set [3] (20 mg/kg oral), the “Inhibition of reserpine-induced catatonia” value is 1 (20 to 30% inhibition of catatonia in comparison with the controls (namely a score of 7 to 8 per studied batch)).
As for `CCCCC(N)(CC)CCC` (centres unmarked) [Compound 4, 1-Ethyl-1-n-propyl-n-pentylamine], in data set [2] (20 mg/kg oral), the “Inhibition of the neuroleptic-induced catatonia” value was 3 (70 to 80% inhibition of catatonia in comparison with the controls (namely a score of 2 or 3 per studied batch)). Also, in data set [3] (20 mg/kg oral), the “Inhibition of reserpine-induced catatonia” value is on record as 3 (70 to 80% inhibition of catatonia in comparison with the controls (namely a score of 2 or 3 per studied batch)).
Consider `CCCC(CC)CC(C)(C)N` (centres unmarked) [Compound 17, 1,1-Dimethyl-3-ethyl-n-hexylamine], for which the “Inhibition of the neuroleptic-induced catatonia” value in data set [2] (11 mg/kg oral) is recorded as 2 (50% inhibition of catationia in comprison with the controls (namely a score of 5 per studied batch)). The “Inhibition of reserpine-induced catatonia” value in data set [3] (11 mg/kg oral) was 1 (20 to 30% inhibition of catatonia in comparison with the controls (namely a score of 7 to 8 per studied batch)).
